Measured values: PubChem BioAssay AID1259407 (Chemical Carcinogenesis Research Information System (CCRIS), 2018)
Active and inactive are the calls of the source. No rule for the calls is given here.

System: CCRIS mutagenicity, Ames/micronucleus/aberration tests
Assay: CCRIS mutagenicity studies

Structure (SMILES): CC(=O)Nc1nc2c3cccnc3ccc2n1C
- mutagenic call (Test System: AMES SALMONELLA TYPHIMURIUM, Strain/Indicator: TA98(1,8-DNP6), Metabolic Activation: RAT, LIVER, S-9, Method: STANDARD PLATE): inactive; negative
- mutagenic call (Test System: AMES SALMONELLA TYPHIMURIUM, Strain/Indicator: TA98(NR), Metabolic Activation: RAT, LIVER, S-9, Method: STANDARD PLATE): active; positive
- mutagenic call (Test System: AMES SALMONELLA TYPHIMURIUM, Strain/Indicator: TA98, Metabolic Activation: RAT, LIVER, S-9, Method: STANDARD PLATE): active; positive
- mutagenic call (Test System: AMES SALMONELLA TYPHIMURIUM, Strain/Indicator: TA98, Method: STANDARD PLATE): active; positive

Structure (SMILES): C=C(C)c1ccccc1
- mutagenic call (End Point: In vitro chromosomal aberrations, Test System: Chinese Hamster ovary (CHO) cells, Metabolic Activation: None): inactive; negative
- mutagenic call (End Point: In vitro chromosomal aberrations, Test System: Chinese Hamster ovary (CHO) cells, Metabolic Activation: Rat, Liver, S-9, Aroclor 1254): inactive; negative
- mutagenic call (End Point: In vivo micronucleus, Test System: Peripheral blood normochromatic erythrocytes, Species: Mouse, Strain/Sex: B6C3F1/ Female, Route: Inhalation): active; positive
- mutagenic call (End Point: In vivo micronucleus, Test System: Peripheral blood normochromatic erythrocytes, Species: Mouse, Strain/Sex: B6C3F1/ Male, Route: Inhalation): active; positive
- mutagenic call (Test System: AMES SALMONELLA TYPHIMURIUM, Strain/Indicator: TA97, Metabolic Activation: HAMSTER, LIVER, S-9, AROCLOR 1254 (10 OR 30%), Method: PREINCUBATION): inactive; negative
- mutagenic call (Test System: AMES SALMONELLA TYPHIMURIUM, Strain/Indicator: TA97, Metabolic Activation: NONE, Method: PREINCUBATION): inactive; negative
- mutagenic call (Test System: AMES SALMONELLA TYPHIMURIUM, Strain/Indicator: TA97, Metabolic Activation: RAT, LIVER, S-9, AROCLOR 1254 (10 OR 30%), Method: PREINCUBATION): inactive; negative
- mutagenic call (Test System: AMES SALMONELLA TYPHIMURIUM, Strain/Indicator: TA98, Metabolic Activation: HAMSTER, LIVER, S-9, AROCLOR 1254 (10%), Method: PREINCUBATION): inactive; negative
- mutagenic call (Test System: AMES SALMONELLA TYPHIMURIUM, Strain/Indicator: TA98, Metabolic Activation: HAMSTER, LIVER, S-9, AROCLOR 1254 (30%), Method: PREINCUBATION): inactive; negative
- mutagenic call (Test System: AMES SALMONELLA TYPHIMURIUM, Strain/Indicator: TA98, Metabolic Activation: NONE, Method: PREINCUBATION): inactive; negative
- mutagenic call (Test System: AMES SALMONELLA TYPHIMURIUM, Strain/Indicator: TA98, Metabolic Activation: RAT, LIVER, S-9, AROCLOR 1254 (10%), Method: PREINCUBATION): inactive; negative
- mutagenic call (Test System: AMES SALMONELLA TYPHIMURIUM, Strain/Indicator: TA98, Metabolic Activation: RAT, LIVER, S-9, AROCLOR 1254 (30%), Method: PREINCUBATION): inactive; negative
- mutagenic call (Test System: AMES SALMONELLA TYPHIMURIUM, Strain/Indicator: TA100, Metabolic Activation: HAMSTER, LIVER, S-9, AROCLOR 1254 (10%), Method: PREINCUBATION): inactive; negative
- mutagenic call (Test System: AMES SALMONELLA TYPHIMURIUM, Strain/Indicator: TA100, Metabolic Activation: HAMSTER, LIVER, S-9, AROCLOR 1254 (30%), Method: PREINCUBATION): inactive; negative
- mutagenic call (Test System: AMES SALMONELLA TYPHIMURIUM, Strain/Indicator: TA100, Metabolic Activation: NONE, Method: PREINCUBATION): inactive; negative
- mutagenic call (Test System: AMES SALMONELLA TYPHIMURIUM, Strain/Indicator: TA100, Metabolic Activation: RAT, LIVER, S-9, AROCLOR 1254 (10%), Method: PREINCUBATION): inactive; negative
- mutagenic call (Test System: AMES SALMONELLA TYPHIMURIUM, Strain/Indicator: TA100, Metabolic Activation: RAT, LIVER, S-9, AROCLOR 1254 (30%), Method: PREINCUBATION): inactive; negative
- mutagenic call (Test System: AMES SALMONELLA TYPHIMURIUM, Strain/Indicator: TA1535, Metabolic Activation: HAMSTER, LIVER, S-9, AROCLOR 1254 (10 OR 30%), Method: PREINCUBATION): inactive; negative
- mutagenic call (Test System: AMES SALMONELLA TYPHIMURIUM, Strain/Indicator: TA1535, Metabolic Activation: NONE, Method: PREINCUBATION): inactive; negative
- mutagenic call (Test System: AMES SALMONELLA TYPHIMURIUM, Strain/Indicator: TA1535, Metabolic Activation: RAT, LIVER, S-9, AROCLOR 1254 (10 OR 30%), Method: PREINCUBATION): inactive; negative

Structure (SMILES): Nc1ccc(/C=C\c2ccc([N+](=O)[O-])cc2)cc1
- mutagenic call (Test System: AMES SALMONELLA TYPHIMURIUM, Strain/Indicator: TA98(1,8-DNP6), Metabolic Activation: NONE, Method: STANDARD PLATE): inactive; negative
- mutagenic call (Test System: AMES SALMONELLA TYPHIMURIUM, Strain/Indicator: TA98(1,8-DNP6), Metabolic Activation: S-9, Method: STANDARD PLATE): active; positive
- mutagenic call (Test System: AMES SALMONELLA TYPHIMURIUM, Strain/Indicator: TA98, Metabolic Activation: NONE, Method: STANDARD PLATE): active; positive
- mutagenic call (Test System: AMES SALMONELLA TYPHIMURIUM, Strain/Indicator: TA98, Metabolic Activation: RAT, LIVER, S-9, AROCLOR 1254, Method: STANDARD PLATE): active; positive
- mutagenic call (Test System: AMES SALMONELLA TYPHIMURIUM, Strain/Indicator: TA98, Metabolic Activation: S-9, Method: STANDARD PLATE): active; positive
- mutagenic call (Test System: AMES SALMONELLA TYPHIMURIUM, Strain/Indicator: TA100, Metabolic Activation: NONE, Method: STANDARD PLATE): inactive; negative
- mutagenic call (Test System: AMES SALMONELLA TYPHIMURIUM, Strain/Indicator: TA100, Metabolic Activation: RAT, LIVER, S-9, AROCLOR 1254, Method: STANDARD PLATE): active; positive
- mutagenic call (Test System: AMES SALMONELLA TYPHIMURIUM, Strain/Indicator: TA100, Metabolic Activation: S-9, Method: STANDARD PLATE): active; positive
